Tests used:
Assay type in all cases: biochemical
CDK4/Cyclin D1 = CDK4/Cyclin D1 (Homo sapiens (Human), UniProt P11802); assay: CDK4/Cyclin D1 CHEF Assay; conditions: AQT; read-out: CDK4/CyclinD1 AQT IC50
Description: CDK4/Cyclin D1 CHEF Assay
The purpose of CDK4/Cyclin Dl assay is to evaluate the inhibition (% inhibition and IC50 values) of small molecule inhibitors by using a Chelation-Enhance Fluorescence (CHEF) assay. In a CHEF assay, phosphorylation of a peptide substrate results in proportional increase in fluorescence. CHEF kinase assay use peptide substrates containing a synthetic alpha-amino acid with a side chain bearing an 8-hydroxyquinoline derivative (sulfonamido-oxide, Sox). Upon phosphorylation of a nearby serine, threonine or tyrosine and in the presence of Mg(II), the spectral properties of the Sox residue are altered, emitting 485 nm wavelength light when excited with a 360 nm wavelength light source. CDK4/Cyclin D1 catalyzes the phosphoryl transfer to the SOX-labeled substrate peptide AQT0258 from Assayquant Technologies. […] The reaction was initiated with the addition of substrate solution, following a 30-minute pre-incubation of enzyme and inhibitor at 22° C. in the reaction mix. Reactions were allowed to proceed for 3 hrs at 22° C., followed by fluorescence read of the reaction. The IC50 determinations were made from a plot of the fractional velocity as a function of inhibitor concentration fit to the 4 parameters IC50 equation.

CDK1/Cyclin B1 = CDK1/Cyclin B1 (Homo sapiens (Human), UniProt P06493); assay: CDK1/Cyclin B1 ADP-Glo Kinase Assay
Chain of CDK1/Cyclin B1 (P06493 whole entry): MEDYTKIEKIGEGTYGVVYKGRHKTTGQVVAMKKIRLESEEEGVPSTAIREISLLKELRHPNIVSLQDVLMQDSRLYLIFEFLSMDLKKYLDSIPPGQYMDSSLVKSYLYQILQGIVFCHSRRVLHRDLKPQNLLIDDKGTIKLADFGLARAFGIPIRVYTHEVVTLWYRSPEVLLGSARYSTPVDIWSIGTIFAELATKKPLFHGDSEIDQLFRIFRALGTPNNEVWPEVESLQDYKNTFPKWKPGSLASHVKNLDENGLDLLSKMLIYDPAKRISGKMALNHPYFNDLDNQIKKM
Chain of CDK1/Cyclin B1 (P14635 whole entry partner): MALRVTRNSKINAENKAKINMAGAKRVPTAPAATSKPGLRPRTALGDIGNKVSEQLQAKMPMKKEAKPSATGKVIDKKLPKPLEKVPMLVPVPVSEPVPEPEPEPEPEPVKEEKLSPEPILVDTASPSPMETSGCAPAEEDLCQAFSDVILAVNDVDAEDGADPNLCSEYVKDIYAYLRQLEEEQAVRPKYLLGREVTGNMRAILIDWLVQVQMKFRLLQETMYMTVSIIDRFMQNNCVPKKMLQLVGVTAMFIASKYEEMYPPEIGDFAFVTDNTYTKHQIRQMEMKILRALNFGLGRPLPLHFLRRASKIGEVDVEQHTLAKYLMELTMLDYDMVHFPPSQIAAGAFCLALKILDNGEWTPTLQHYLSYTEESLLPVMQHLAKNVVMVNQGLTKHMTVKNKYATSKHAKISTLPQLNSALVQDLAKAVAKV
Procedure: CDK1/Cyclin B1 ADP-Glo Kinase Assay
(§1) The purpose of CDK1/Cyclin Bi assay is to evaluate the inhibition (% inhibition and IC50 values) of small molecule inhibitors by using a Luminescent based ADP-Glo assay. CDK1/Cyclin B1 catalyzes the production of ADP from ATP. ADP-Glo assay monitors ADP producing biochemical reactions. ADP-Glo is performed in 2 steps upon completion of kinase reaction: a combined termination of kinase reaction and depletion of remaining ATP in the first step, and conversion of generated ADP to ATP and the newly produced ATP to light output using luciferase/luciferin reaction in the second step. The luminescent signal generated is proportional to the ADP concentration produced and is correlated with the kinase activity. CDK1/Cyclin B1 was purchased from Carna (Cat 04-102). […] The assay was initiated with the addition of ATP-containing substrate solution, following a 30-minute pre-incubation of enzyme and inhibitor at room temperature in the reaction mixture. The reaction was stopped after 90 minutes at room temperature by the addition of 10 μL of ADP-GLO Reagent. After a 90 minute incubation, 20 μL of Kinase Detection Reagent was added. Samples were incubated for 40 minutes, after which plate well luminescence was measured on a Envision microplate reader. The IC50 determinations were made from a plot of the fractional velocity as a function of inhibitor concentration fit to the 4 parameters IC50 equation.

CDK6/Cyclin D3 = CDK6/Cyclin D3 (Homo sapiens (Human), UniProt Q00534); assay: CDK6/Cyclin D3 ADP-Glo Kinase Assay; conditions: read-out: CDK6/CyclinD3 IC50
Chain of CDK6/Cyclin D3 (Q00534 whole entry): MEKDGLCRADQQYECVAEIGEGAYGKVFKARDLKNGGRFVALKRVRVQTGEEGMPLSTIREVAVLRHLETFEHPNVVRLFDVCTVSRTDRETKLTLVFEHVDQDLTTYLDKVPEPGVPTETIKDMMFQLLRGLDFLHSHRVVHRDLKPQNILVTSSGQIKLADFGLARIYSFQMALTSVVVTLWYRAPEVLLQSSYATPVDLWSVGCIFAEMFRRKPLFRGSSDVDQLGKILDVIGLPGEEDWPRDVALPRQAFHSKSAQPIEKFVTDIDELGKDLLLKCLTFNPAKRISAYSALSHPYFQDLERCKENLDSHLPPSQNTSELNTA
Chain of CDK6/Cyclin D3 (P30281 whole entry partner): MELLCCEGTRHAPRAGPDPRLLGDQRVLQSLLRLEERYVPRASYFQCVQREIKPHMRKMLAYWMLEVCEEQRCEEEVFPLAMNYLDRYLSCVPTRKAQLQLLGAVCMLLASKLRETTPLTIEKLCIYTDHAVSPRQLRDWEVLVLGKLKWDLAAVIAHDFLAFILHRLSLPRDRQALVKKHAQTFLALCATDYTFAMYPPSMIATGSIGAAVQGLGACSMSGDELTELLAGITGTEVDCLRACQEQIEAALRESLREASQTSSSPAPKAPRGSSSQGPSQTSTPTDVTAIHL
Procedure: CDK6/Cyclin D3 ADP-Glo Kinase Assay
as §1, with “of the CDK6/Cyclin D3” for “of CDK1/Cyclin Bi”, “values) in the presence” for “values)”, “assay. CDK6/Cyclin D3” for “assay. CDK1/Cyclin B1”, “activity. CDK6/Cychin D3” for “activity. CDK1/Cyclin B1”, “from Carna.” for “from Carna (Cat 04-102).”, “a 90-minute” for “a 90 minute”

Chain of CDK4/Cyclin D1 (P11802 whole entry, species assumed): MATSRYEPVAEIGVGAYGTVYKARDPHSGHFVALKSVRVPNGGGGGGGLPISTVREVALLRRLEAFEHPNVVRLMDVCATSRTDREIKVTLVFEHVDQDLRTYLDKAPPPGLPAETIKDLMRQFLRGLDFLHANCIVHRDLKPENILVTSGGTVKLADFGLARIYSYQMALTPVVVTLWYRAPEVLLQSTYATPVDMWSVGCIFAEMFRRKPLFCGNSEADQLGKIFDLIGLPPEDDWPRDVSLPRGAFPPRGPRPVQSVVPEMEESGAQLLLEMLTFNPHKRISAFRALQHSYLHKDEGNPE
Chain of CDK4/Cyclin D1 (P24385 whole entry partner, species assumed): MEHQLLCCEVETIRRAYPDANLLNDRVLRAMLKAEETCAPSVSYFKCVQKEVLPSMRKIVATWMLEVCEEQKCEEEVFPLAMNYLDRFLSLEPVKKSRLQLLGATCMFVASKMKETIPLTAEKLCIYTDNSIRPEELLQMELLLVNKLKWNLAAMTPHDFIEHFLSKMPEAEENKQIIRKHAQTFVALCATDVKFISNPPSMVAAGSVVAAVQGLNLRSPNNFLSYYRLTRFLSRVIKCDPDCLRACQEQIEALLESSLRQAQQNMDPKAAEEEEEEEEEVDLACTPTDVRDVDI

| SMILES | IC50 (CDK4/Cyclin D1) | IC50 (CDK1/Cyclin B1) | IC50 (CDK6/Cyclin D3) |
| --- | --- | --- | --- |
| Cc1cc2cnc(NC3CCN(S(=O)(=O)C4CC4)CC3)nc2c(N2CC3(CCNC3)C2)n1 [Compound 25, N-(1-(cyclopropylsulfonyl)piperidin-4-yl)-6-methyl-8-(2,6-diazaspiro[3.4]octan-2-yl) pyrido[3,4-d]pyrimidin-2-amine] | < 200 nM | 200 to 500 nM | < 200 nM |
| Cc1cc2cnc(Nc3cc4c(cc3F)CN(S(C)(=O)=O)C4)nc2c(N2CC3(CCNC3)C2)n1 [Compound 39, N-(6-fluoro-2-(methylsulfonyl)isoindolin-5-yl)-6-methyl-8-(2,6-diazaspiro [3.4]octan-2-yl)pyrido[3,4-d]pyrimidin-2-amine] | 200 to 500 nM | > 2000 nM | > 2000 nM |
| Cc1cc2cnc(N[C@H]3CC[C@H](CN(C)C)CC3)nc2c(N2CCC3(C2)CC3(F)F)n1 (some centres unmarked) [Compound 40, 8-(1,1-difluoro-5-azaspiro[2.4]heptan-5-yl)-N-((1r,4r)-4-((dimethylamino)methyl)cyclohexyl)-6-methylpyrido[3,4-d]pyrimidin-2-amine] | < 200 nM | > 2000 nM | < 200 nM |
| Cc1cc2cnc(Nc3ccc4c(c3)CN(C)C4)nc2c(N2CC3(C2)CN(C2CC2)C3)n1 [Compound 44, 8-(6-cyclopropyl-2,6-diazaspiro[3.3]heptan-2-yl)-6-methyl-N-(2-methylisoindolin-5-yl)pyrido[3,4-d]pyrimidin-2-amine] | 200 to 500 nM | > 2000 nM |  |
| Cc1cc2cnc(N[C@H]3CC[C@@H](CN(C)C)CC3)nc2c(N2CCC3(C2)CC3(F)F)n1 (some centres unmarked) [Compound 45, 8-(1,1-difluoro-5-azaspiro[2.4]heptan-5-yl)-N-((1s,4s)-4-((dimethylamino)methyl)cyclohexyl)-6-methylpyrido[3,4-d]pyrimidin-2-amine] | < 200 nM | > 2000 nM |  |
| Cc1cc2cnc(NC3CCN(S(C)(=O)=O)CC3)nc2c(N2CCC3(CCC3(F)F)C2)n1 (centres unmarked) [Compound 52, 8-(1,1-difluoro-6-azaspiro[3.4]octan-6-yl)-6-methyl-N-(1-(methylsulfonyl)piperidin-4-yl)pyrido[3,4-d]pyrimidin-2-amine] | < 200 nM | < 200 nM | < 200 nM |
| Cc1cc2cnc(NC3CCN(S(C)(=O)=O)CC3)nc2c(N2CCC3(C2)CC(F)(F)C3)n1 [Compound 53, 8-(2,2-difluoro-6-azaspiro[3.4]octan-6-yl)-6-methyl-N-(1-(methylsulfonyl)piperidin-4-yl)pyrido[3,4-d]pyrimidin-2-amine] | < 200 nM | > 2000 nM | < 200 nM |
| Cc1cc2cnc(NC3CCN(S(C)(=O)=O)CC3)nc2c(N2CCC3(CC3)C2)n1 [Compound 54, 6-methyl-N-(1-(methylsulfonyl)piperidin-4-yl)-8-(5-azaspiro[2.4]heptan-5-yl)pyrido[3,4-d]pyrimidin-2-amine] | < 200 nM | < 200 nM | < 200 nM |
| O=S(=O)(CC1CCC1)N1CCC(Nc2ncc3cc(C(F)F)nc(N4CC5(CCNC5)C4)c3n2)CC1 [Compound 55] | < 200 nM | < 200 nM | < 200 nM |
| Cc1cc2cnc(NC3CCN(S(=O)(=O)C4CC4)CC3)nc2c(N2CC(O)(C3CC3)C2)n1 [Compound 56, 3-cyclopropyl-1-(2-((1-(cyclopropylsulfonyl)piperidin-4-yl)amino)-6-methylpyrido[3,4-d]pyrimidin-8-yl)azetidin-3-ol] | < 200 nM | < 200 nM | < 200 nM |
| Cc1cc2cnc(NC3CCN(S(=O)(=O)C4CC4)CC3)nc2c(N2CCC(OC(F)F)C2)n1 (centres unmarked) [Compound 58, N-(1-(cyclopropylsulfonyl)piperidin-4-yl)-8-(3-(difluoromethoxy)pyrrolidin-1-yl)-6-methylpyrido[3,4-d]pyrimidin-2-amine] | < 200 nM | < 200 nM | < 200 nM |

Other lines, results leading:

| IC50 (CDK4/Cyclin D1) | IC50 (CDK1/Cyclin B1) | IC50 (CDK6/Cyclin D3) | SMILES |
| --- | --- | --- | --- |
| < 200 nM | < 200 nM | < 200 nM | CS(=O)(=O)N1CCC(Nc2ncc3cc(C4CC4)nc(N4CC(F)(F)C5(CNC5)C4)c3n2)CC1 [Compound 60, 6-cyclopropyl-8-(8,8-difluoro-2,6-diazaspiro[3.4]octan-6-yl)-N-(1-(methylsulfonyl)piperidin-4-yl)pyrido[3,4-d]pyrimidin-2-amine] |
| < 200 nM | < 200 nM | < 200 nM | Cc1cc2cnc(NC3CCN(S(=O)(=O)C4CC4)CC3)nc2c(N2CC3(CCNCC3(F)F)C2)n1 [Compound 61, N-(1-(cyclopropylsulfonyl)piperidin-4-yl)-8-(5,5-difluoro-2,7-diazaspiro[3.5]nonan-2-yl)-6-methylpyrido[3,4-d]pyrimidin-2-amine] |
| < 200 nM | < 200 nM | < 200 nM | Cc1cc2cnc(NC3CCN(S(=O)(=O)C4CC4)CC3)nc2c(N2CC(F)(F)C3(CNC3)C2)n1 [Compound 62, N-(1-(cyclopropylsulfonyl)piperidin-4-yl)-8-(8,8-difluoro-2,6-diazaspiro[3.4]octan-6-yl)-6-methylpyrido[3,4-d]pyrimidin-2-amine] |
| < 200 nM | < 200 nM | < 200 nM | CS(=O)(=O)N1CCC(Nc2ncc3cc(C(F)F)nc(N4CC5(CNCCC5(F)F)C4)c3n2)CC1 [Compound 65] |
| 200 to 500 nM | > 2000 nM |  | Cc1cc2cnc(NC3CCN(S(=O)(=O)C4CC4)CC3)nc2c(N2CC(C#N)(CCF)C2)n1 [Compound 68, 1-(2-((1-(cyclopropylsulfonyl)piperidin-4-yl)amino)-6-methylpyrido[3,4-d]pyrimidin-8-yl)-3-(2-fluoroethyl) azetidine-3-carbonitrile] |
| < 200 nM | 200 to 500 nM | < 200 nM | COC1CC2(C1)CN(c1nc(C)cc3cnc(NC4CCN(S(=O)(=O)C5CC5)CC4)nc13)C2 [Compound 71, N-(1-(cyclopropylsulfonyl)piperidin-4-yl)-8-(6-methoxy-2-azaspiro[3.3]heptan-2-yl)-6-methylpyrido[3,4-d]pyrimidin-2-amine] |
| 200 to 500 nM |  | 200 to 500 nM | Cc1cc2cnc(NC3CCN(S(=O)(=O)C4CC4)CC3)nc2c(N2CC(N3CC(F)C3)C2)n1 [Compound 72, N-(1-(cyclopropylsulfonyl)piperidin-4-yl)-8-(3-fluoro-[1,3′-biazetidin]-1′-yl)-6-methylpyrido[3,4-d]pyrimidin-2-amine] |
| < 200 nM |  | 200 to 500 nM | Cc1cc2cnc(NC3CCN(S(C)(=O)=O)CC3)nc2c(N2CC3(CC(O)C3)C2)n1 [Compound 73, 2-(6-methyl-2-((1-(methylsulfonyl)piperidin-4-yl)amino)pyrido[3,4-d]pyrimidin-8-yl)-2-azaspiro[3.3]heptan-6-ol] |
| 200 to 500 nM |  | 200 to 500 nM | Cc1cc2cnc(NC3CCN(S(=O)(=O)C4CC4)CC3)nc2c(N2CC(CS(C)(=O)=O)C2)n1 [Compound 74, N-(1-(cyclopropylsulfonyl)piperidin-4-yl)-6-methyl-8-(3-((methylsulfonyl)methyl)azetidin-1-yl)pyrido[3,4-d]pyrimidin-2-amine] |
| < 200 nM |  | < 200 nM | COCCN1CC2(CC(c3nc(C4CC4)cc4cnc(NC5CCN(S(=O)(=O)CC6CCC6)CC5)nc34)C2)C1 [Compound 80, N-(1-((cyclobutylmethyl)sulfonyl)piperidin-4-yl)-6-cyclopropyl-8-(2-(2-methoxyethyl)-2-azaspiro[3.3]heptan-6-yl)pyrido[3,4-d]pyrimidin-2-amine] |

From patent US20250235456A1, “METHODS OF USE FOR AZA-QUINAZOLINE COMPOUNDS” (Iambic Therapeutics, Inc., priority 2024, published 2025)
